Data reported in patent US10561681B2, “Antimetastatic 2H-selenopheno[3,2-h]chromenes, synthesis thereof, and methods of using same agents” (Latvian Institute of Organic Synthesis, priority 2016, dated 2020).
Marks after values point to notes of the source that are not given here.

Tests used:
[1] = test system: MCF-7 (human breast adenocarcinoma, estrogen-positive); experiment: In vitro cytotoxicity, MTT test; assay type: cell-based; conditions: MCF7, MTT, 72 h, read-out: Cytotoxicity IC50, MCF-7
Summary of the method: (§1)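 Viability is scored by MTT reduction after a 72 h compound incubation at 37 °C, 5% CO2, with untreated cells as reference; the formazan is taken up in DMSO and measured at 540 nm.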

[2] = test system: HepG2 (human hepatocellular carcinoma); experiment: In vitro cytotoxicity, MTT test; assay type: cell-based; conditions: HepG2, MTT, 72 h, read-out: Cytotoxicity IC50, HepG2
Summary of the method: as §1

[3] = test system: MDA-MB-435s (human melanoma); experiment: In vitro cytotoxicity, MTT test; assay type: cell-based; conditions: MTT, 72 h, read-out: Cytotoxicity IC50, MDA-MB-435s
Summary of the method: as §1

[4] = test system: A549 (human lung carcinoma); experiment: In vitro cytotoxicity, MTT test; assay type: cell-based; conditions: Homo sapiens, A549, 72 h, MTT, 72 h; read-out: Cytotoxicity IC50, A549
Summary of the method: as §1

CCL-8 (mouse sarcoma) = experiment: In vitro cytotoxicity, MTT test; assay type: cell-based; conditions: MTT, 72 h, read-out: Cytotoxicity IC50, CCL-8
Summary of the method: as §1

[5] = test system: HT-1080 (human fibrosarcoma); experiment: In vitro cytotoxicity, MTT test; assay type: cell-based; conditions: HT-1080, MTT, 72 h, read-out: Cytotoxicity IC50, HT-1080
Summary of the method: as §1

[6] = test system: SH-SY5Y (human neuroblastoma); experiment: In vitro cytotoxicity, MTT test; assay type: cell-based; conditions: Homo sapiens, SH-SY5Y, 72 h, MTT, read-out: Cytotoxicity IC50, SHSY5Y
Summary of the method: as §1

MG-22A (mouse hepatoma) = experiment: In vitro cytotoxicity, MTT test; assay type: cell-based; conditions: MTT, 72 h, read-out: Cytotoxicity IC50, MG-22A
Summary of the method: as §1

[7] = test system: MES-SA (human uterus sarcoma); experiment: In vitro cytotoxicity, MTT test; assay type: cell-based; conditions: MTT, 72 h, read-out: Cytotoxicity IC50, MES-SA
Summary of the method: as §1

malignant tumor cells = experiment: In vitro cytotoxicity on monolayer tumor cell lines (panel, summary in words); assay type: cell-based; conditions: summary of Table 1
Procedure: Anticancer activity of selenopheno[h]chromenes was tested in vitro using cytotoxicity assay. Thus, monolayer tumor cell lines MDA-MB-435s (human melanoma), MCF-7 (human breast adenocarcinoma, estrogen-positive), MES-SA (human uterus sarcoma), HT-1080 (human fibrosarcoma), A549 (human lung carcinoma), SH-SY5Y (human neuroblastoma), CCL-8 (mouse sarcoma), MG-22A (mouse hepatoma), and HepG2 (human hepatocellular carcinoma) were cultured in standard medium DMEM (Dulbecco's modified Eagle's medium) (“Sigma”) supplemented with 10% fetal bovine serum (“Sigma”). About 2-9·10^4 cells/mL (depending on line nature) were placed in 96-well plates immediately after compounds were added to the wells. Untreated cells were used as a control. The plates were incubated for 72 h, 37° C., 5% CO2. The number of surviving cells was determined using 3-(4,5-dimethylthiazol-2-yl)-2,5-diphenyltetrazolinium bromide (MTT). MTT-test: after incubating culture medium was removed and 200 μL fresh medium with 10 mM HEPES was added in each well of the plate, than 20 μL MTT (2 mg/mL in HBSS) was added. After incubation (3 hr, 37° C., 5% CO2), the medium with MTT was removed and 200 μL DMSO were added at once to each sample. The samples were tested at 540 nm on Anthos HT II photometer.

4T1 cells = experiment: Orthotropic model of 4T1 murine metastatic breast cancer in BALB/c mice; assay type: in vivo, mouse; conditions: 4T1 orthotropic; for Increase of spleen weight (splenomegaly) compared with healthy animals: control with tumors 316%
Procedure: Orthotropic model of mouse breast cancer was developed by injection of 4T1 cells in the mammary fat pad of syngeneic BALB/c mice. In this case, 4T1 cells develops solid tumors following by metastasis in lung, liver, lymph nodes, and brain (Aslakson at al., Cancer Res, 1992, 52, 1399-1405).
In our experiments seven-week-old female BALB/c mice were injected orthotopically into the fourth mammary fat pad with 10^5 4T1 cells suspended in 0.01 mL of PBS on day zero of the study. The compounds dissolved in DMSO, diluted with 0.1 mL water (DMSO final concentration 1%) and injected s.c. The compounds were administered at 1, 2, 3, 11 days, dose 20 mg/kg. Mice in the untreated group were similarly given four doses of 0.1 mL of water with DMSO. Tumor volume (tumor volume V=[…], wherein “a” is the maximal, and “b”—the minimal tumor diameter) was calculated twice per week. The mice were examined every other day on appearance, weight and behavior. The mice were sacrificed at day 16 of the experiment by decapitation under ketamine/xylazine anesthesia. After euthanasia, the mice were dissected. The primary tumor, liver and spleen were removed, weighed and studied. All metastases in the internal organs were described.

[8] = test system: mouse sarcoma CCRF-S180 II (CCL-8); experiment: Mouse non-metastatic cancer model, sarcoma CCL-8 s.c. in ICR mice; assay type: in vivo; conditions: s.c. Day 1, 2, 3, 4, 7, 8, 9, 10, 11; dose 5 mg/kg, total dose 45 mg/kg
Procedure: Six-week-old female ICR and BALB/c mice were purchased from the University of Tartu Laboratory Animal Centre (Estonia). The mice were housed five to a cage, and under standard conditions (21-23° C., 12 h light: dark cycle), fed ad libitum (R3 diet, Lactamin AB, Kimstad, Sweden) and observed daily. The experimental procedures involving experimental animals were carried out in accordance with the guidelines of the European Community, local laws and policies, and were approved by the Latvian Animal Protection Ethical Committee, the Food and Veterinary Service, Riga, Latvia.
In vivo studies were performed utilizing the mouse sarcoma CCRF-S180 II (CCL-8) and Lewis lung carcinoma (LLC) cell line. All cell lines were purchased from ATCC. The cells were grown in Dulbecco's modified Eagle's medium (Sigma) supplemented with 10% fetal calf serum (Sigma).
ICR mice were subcutaneously inoculated in the back with 5×10^6 CCL-8 cells and BALB/c mice were inoculated with 1×10^6 LLC (Lewis Lung Carcinoma) cells, which were suspended in 0.1 mL of PBS on day zero of the study. The compounds dissolved in DMSO and then in 0.1 mL water (DMSO final concentration 1%) were injected s.c. Mice in the untreated group were similarly given doses of 0.1 mL of water with DMSO. Tumor volume (tumor volume V=[…], a is maximal and b the minimal tumor diameter) was recorded twice per week. The mice were examined every other day for diseases including appearance, weight and behavior. The mice were sacrificed at day 16 of the experiment by decapitation after ketamine/xylazine anesthesia.

| SMILES | IC50 [1] [µM] | IC50 [2] [µM] | IC50 [3] [µM] | IC50 [4] [µM] | IC50 (CCL-8 (mouse sarcoma)) [µM] | IC50 [5] [µM] | IC50 [6] [µM] | IC50 (MG-22A (mouse hepatoma)) [µM] | IC50 [7] [µM] | Cytotoxicity on cancer cell lines (malignant tumor cells) | Formation of metastases (4T1 cells) | Increase of spleen weight (splenomegaly) compared with healthy animals (4T1 cells) [%] | Anticancer activity in vivo (inhibition, %), CCL-8 tumor volume [8] |
| --- | --- | --- | --- | --- | --- | --- | --- | --- | --- | --- | --- | --- | --- |
| COC(=O)c1cc2ccc3c(Br)c(CN4CCN(C)CC4)[se]c3c2oc1=O [Compound I-10, Methyl 7-bromo-8-((4-methylpiperazin-1-yl)methyl)-2-oxo-2H-selenopheno[3,2-h]chromene-3-carboxylate] | 150 ± 9 | 187 ± 10 | > 187 | 187 ± 10 | 94 ± 7 | 170 ± 9 | > 117 | 64 ± 5 | > 187 | low toxic to the cancer cell lines | dramatically reduces the formation of metastases | 256 | 42** % |
| O=C(O)c1cc2ccc3c(Br)c(C4(O)CCCCC4)[se]c3c2oc1=O [Compound I-11, 7-Bromo-8-(1-hydroxycyclohexyl)-2-oxo-2H-selenopheno[3,2-h]chromene-3-carboxylic acid] | 213 ± 6 | > 213 | 208 ± 13 | > 213 | 149 ± 9 | 77 ± 5 | > 117 | > 122 | 206 ± 10 | complete loss of cytotoxicity | dramatically reduces the formation of metastases | 198 | 58* % |
